Measurements published in ChEMBL document CHEMBL1134260, “Adamantylaminopyrimidines and -pyridines are potent inducers of tumor necrosis factor-alpha” (2001).
The source made the active and inactive calls. The rule behind the calls is not given here.

Assays:
[1] = TNF-alpha stimulatory activity in B78/TNF/9 melanoma cells evaluated by ELISA method; assay type: functional, Mus musculus; parameters: concentration or dose not given beside the values
[2] = species on record: Mus musculus; experiment: Tested for the ability to stimulate TNF-alpha production in B78-H1 murine melanoma cells transduced with gene for human TNF-alpha, clone-9 at 10 nM concentration; In active; assay type: functional
[3] = Tested for the ability to stimulate TNF-alpha production in B78-H1 murine melanoma cells transduced with gene for human TNF-alpha, clone-9 at 10 uM concentration; assay type: functional, Mus musculus
[4] = species on record: Mus musculus; experiment: Tested for the ability to stimulate TNF-alpha production in B78-H1 murine melanoma cells transduced with gene for human TNF-alpha, clone-9 at 10 uM concentration; In active; assay type: functional

Row | SMILES | TNF-alpha production (% of control) [1] | also measured
1 | Clc1ccc(NC23CC4CC(CC(C4)C2)C3)cn1 | ~100% | –
2 | Cc1cc(N)nc(NC23CC4CC(CC(C4)C2)C3)n1 | ~180% | –
3 | Cc1cc(C)nc(NC23CC4CC(CC(C4)C2)C3)n1 | ~240% | Enhancement [2]: inactive
4 | c1cc(NC23CC4CC(CC(C4)C2)C3)ccn1 | ~130% | –
5 | Cc1cccc(NC23CC4CC(CC(C4)C2)C3)n1 | ~260% | Enhancement [3]: 10%
6 | Cc1ccc(NC23CC4CC(CC(C4)C2)C3)nc1 | ~200% | –
7 | Cc1cc(C)nc(NC23CC4CC(CC(C4)C2)C3)c1 | ~250% | Enhancement [4]: inactive
8 | Cc1ccnc(NC23CC4CC(CC(C4)C2)C3)c1 | ~200% | –
9 | c1ccc(NC23CC4CC(CC(C4)C2)C3)nc1 | ~170% | Enhancement [4]: inactive
10 | c1cnc(NC23CC4CC(CC(C4)C2)C3)nc1 | ~200% | –
11 | Brc1cnc(NC23CC4CC(CC(C4)C2)C3)nc1 | ~150% | –
12 | Brc1ccc(NC23CC4CC(CC(C4)C2)C3)nc1 | ~140% | –
13 | Cc1cc(Cl)nc(NC23CC4CC(CC(C4)C2)C3)n1 | ~220% | –
14 | c1cncc(NC23CC4CC(CC(C4)C2)C3)c1 | ~190% | –
15 | NC12CC3CC(CC(C3)C1)C2 | – | Enhancement [4]: inactive
